In patent US20100168102A9, “Amide Derivatives as Kinase Inhibitors” (Devgen NV, priority 2005, published 2010) one finds IC50 data, which are given here for 27 compounds.

One assay has as its target T1, PKC epsilon (Homo sapiens, UniProt Q02156).
T1 construct: purchased Invitrogen P2282
T1 sequence (Q02156 1-737): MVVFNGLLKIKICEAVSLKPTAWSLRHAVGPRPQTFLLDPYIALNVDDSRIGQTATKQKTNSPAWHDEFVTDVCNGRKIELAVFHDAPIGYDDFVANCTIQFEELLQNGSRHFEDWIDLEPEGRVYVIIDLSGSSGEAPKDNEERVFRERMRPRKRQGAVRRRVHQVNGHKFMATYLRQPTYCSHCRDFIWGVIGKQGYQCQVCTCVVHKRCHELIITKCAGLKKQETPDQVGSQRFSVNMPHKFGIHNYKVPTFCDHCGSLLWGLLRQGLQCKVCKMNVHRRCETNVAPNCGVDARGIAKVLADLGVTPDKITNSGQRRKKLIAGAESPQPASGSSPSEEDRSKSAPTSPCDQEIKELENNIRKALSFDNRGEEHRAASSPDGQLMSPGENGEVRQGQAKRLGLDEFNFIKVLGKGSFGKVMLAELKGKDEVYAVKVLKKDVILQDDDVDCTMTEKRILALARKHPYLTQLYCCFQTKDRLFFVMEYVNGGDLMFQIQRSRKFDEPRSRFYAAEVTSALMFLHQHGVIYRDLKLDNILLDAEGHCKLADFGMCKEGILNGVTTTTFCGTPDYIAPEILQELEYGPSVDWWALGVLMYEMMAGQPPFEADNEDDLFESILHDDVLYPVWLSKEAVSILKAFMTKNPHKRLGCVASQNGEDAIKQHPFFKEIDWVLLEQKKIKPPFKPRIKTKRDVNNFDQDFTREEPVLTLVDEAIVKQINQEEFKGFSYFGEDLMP
Nature of the assay: Biochemical assay for PKC epsilon (fluorescence polarization, Protein Kinase C Assay Kit, Red). Conditions: read-out: IC50 μM PKCε. Summed up:
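PKC epsilon at 10 ng/ml final was preincubated 30 min at room temperature with compound in HEPES pH 7.4 with DTT and Triton X-100. ATP/protein substrate was then added in buffer with MgCl2 and CaCl2 for 80 min. The reaction was stopped with EDTA, phosphorylation was detected by fluorescence polarization with rhodamine tracer and anti-phosphoserine antibody, and IC50 values came from curve fits.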

A further assay addresses T2, human ROCKα/ROCKII mix (Homo sapiens, UniProt O75116).
T2 construct: purchased Upstate Biotechnology 14-451
As to the kind of experiment: Biochemical assay for ROCK (fluorescence polarization, ROCK IMAP Kit).

T2 sequence (O75116 11-552 limits assumed): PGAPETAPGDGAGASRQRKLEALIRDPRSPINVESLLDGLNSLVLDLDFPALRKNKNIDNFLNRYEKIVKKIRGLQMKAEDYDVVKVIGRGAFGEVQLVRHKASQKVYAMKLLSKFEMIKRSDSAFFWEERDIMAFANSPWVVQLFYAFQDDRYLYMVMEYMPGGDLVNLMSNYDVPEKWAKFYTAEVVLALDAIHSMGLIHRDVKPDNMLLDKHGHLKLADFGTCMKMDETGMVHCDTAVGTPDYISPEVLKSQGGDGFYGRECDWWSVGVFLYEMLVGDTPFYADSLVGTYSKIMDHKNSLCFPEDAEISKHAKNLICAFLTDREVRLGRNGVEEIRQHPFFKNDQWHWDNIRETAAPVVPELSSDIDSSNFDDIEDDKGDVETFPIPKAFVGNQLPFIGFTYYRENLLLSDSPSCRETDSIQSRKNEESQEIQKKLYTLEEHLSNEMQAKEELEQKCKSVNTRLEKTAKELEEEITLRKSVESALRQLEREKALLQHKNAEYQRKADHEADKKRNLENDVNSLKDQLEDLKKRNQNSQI

With `NC(c1ccc(C(=O)Nc2ccncc2)cc1)C1CCCN1C(=O)Cc1ccc2ccccc2c1` (stereo not drawn) [Compound 535, 4-{Amino-[1-(2-naphthalen-2-yl-acetyl)-pyrrolidin-2-yl]-methyl}-N-pyridin-4-yl-benzamide], the IC50 at PKC epsilon and at human ROCKα/ROCKII mix was 0.5 to 5 µM each time.
As for `NC(c1ccc(C(=O)Nc2ccncc2)cc1)C1CCCN1C(=O)Cc1cccc2ccccc12` (stereo not drawn) [Compound 536, 4-{Amino-[1-(2-naphthalen-1-yl-acetyl)-pyrrolidin-2-yl]-methyl}-N-pyridin-4-yl-benzamide], the IC50 on PKC epsilon and on human ROCKα/ROCKII mix was 0.5 to 5 µM in each case.
With `NC(c1ccc(C(=O)Nc2ccncc2)cc1)C1CCCN1C(=O)Cc1ccc(-c2ccccc2)cc1` (stereo not drawn) [Compound 537, 4-{Amino-[1-(2-biphenyl-4-yl-acetyl)-pyrrolidin-2-yl]-methyl}-N-pyridin-4-yl-benzamide], the IC50 at PKC epsilon and on human ROCKα/ROCKII mix was 0.5 to 5 µM throughout.
For the compound `NC(c1ccc(C(=O)Nc2ccncc2)cc1)C1CCCN1C(=O)Cc1ccc(O)c([N+](=O)[O-])c1` (stereo not drawn) [Compound 540, 4-(Amino-{1-[2-(4-hydroxy-3-nitro-phenyl)-acetyl]-pyrrolidin-2-yl}-methyl)-N-pyridin-4-yl-benzamide], the IC50 is 5 to 50 µM at PKC epsilon and 0.5 to 5 µM on human ROCKα/ROCKII mix.
With `NC(c1ccc(C(=O)Nc2ccncc2)cc1)C1CCCN1C(=O)Cc1cncc(Br)c1` (stereo not drawn) [Compound 543, 4-(Amino-{1-[2-(5-bromo-pyridin-3-yl)-acetyl]-pyrrolidin-2-yl}-methyl)-N-pyridin-4-yl-benzamide], the values for the IC50 on PKC epsilon and at human ROCKα/ROCKII mix were 5 to 50 µM and 0.5 to 5 µM, respectively.
As for `NC(c1ccc(C(=O)Nc2ccncc2)cc1)C1CCCN1C(=O)Cc1c[nH]c2ccccc12` (stereo not drawn) [Compound 544, 4-{Amino-[1-(2-1H-indol-3-yl-acetyl)-pyrrolidin-2-yl]-methyl}-N-pyridin-4-yl-benzamide], the IC50 at PKC epsilon and at human ROCKα/ROCKII mix was 0.5 to 5 µM throughout.
Turning to `NC(c1ccc(C(=O)Nc2ccncc2)cc1)C1CCCN1C(=O)Cc1csc(-c2ccccc2)n1` (stereo not drawn) [Compound 546, 4-(Amino-{1-[2-(2-phenyl-thiazol-4-yl)-acetyl]-pyrrolidin-2-yl}-methyl)-N-pyridin-4-yl-benzamide], the IC50 at PKC epsilon and at human ROCKα/ROCKII mix was 0.5 to 5 µM throughout.
Turning to `NC(c1ccc(C(=O)Nc2ccncc2)cc1)C1CCCN1C(=O)Cc1cccs1` (stereo not drawn) [Compound 547, 4-{Amino-[1-(2-thiophen-2-yl-acetyl)-pyrrolidin-2-yl]-methyl}-N-pyridin-4-yl-benzamide], the figures for the IC50 at PKC epsilon and against human ROCKα/ROCKII mix were 5 to 50 µM and 0.05 to 0.5 µM, respectively.
For `NC(c1ccc(C(=O)Nc2ccncc2)cc1)C1CCCN1C(=O)C1(c2cccs2)CC1` (stereo not drawn) [Compound 549, 4-{Amino-[1-(1-thiophen-2-yl-cyclopropanecarbonyl)-pyrrolidin-2-yl]-methyl}-N-pyridin-4-yl-benzamide], in that order: 5 to 50 µM and 0.5 to 5 µM.
As for `NC(c1ccc(C(=O)Nc2ccncc2)cc1)C1CCCN1C(=O)C1(c2ccsc2)CC1` (stereo not drawn) [Compound 551, 4-{Amino-[1-(1-thiophen-3-yl-cyclopropanecarbonyl)-pyrrolidin-2-yl]-methyl}-N-pyridin-4-yl-benzamide], the results for the IC50 on PKC epsilon and against human ROCKα/ROCKII mix were 5 to 50 µM and 0.5 to 5 µM, respectively.
Take `NC(c1ccc(C(=O)Nc2ccncc2)cc1)C1CCCN1C(=O)C1Cc2ccccc21` (stereo not drawn) [Compound 552, 4-{Amino-[1-(bicyclo[4.2.0]octa-1,3,5-triene-7-carbonyl)-pyrrolidin-2-yl]-methyl}-N-pyridin-4-yl-benzamide]: the figures for the IC50 at PKC epsilon and against human ROCKα/ROCKII mix were 5 to 50 µM and 0.05 to 0.5 µM, respectively.
For `NC(c1ccc(C(=O)Nc2ccncc2)cc1)C1CCCN1C(=O)C(c1ccccc1)C1CCCCC1` (stereo not drawn) [Compound 555, 4-{Amino-[1-(2-cyclohexyl-2-phenyl-acetyl)-pyrrolidin-2-yl]-methyl}-N-pyridin-4-yl-benzamide], in that order: 0.5 to 5 µM and 0.5 to 5 µM.
Consider `NC(c1ccc(C(=O)Nc2ccncc2)cc1)C1CCCN1C(=O)C(c1ccccc1)C1CCCC1` (stereo not drawn) [Compound 556, 4-{Amino-[1-(2-cyclopentyl-2-phenyl-acetyl)-pyrrolidin-2-yl]-methyl}-N-pyridin-4-yl-benzamide], for which the IC50 on PKC epsilon is 5 to 50 µM; against human ROCKα/ROCKII mix it was 0.5 to 5 µM.
On the same counts, the results for `NC(c1ccc(C(=O)Nc2ccncc2)cc1)C1CCCN1C(=O)Cc1cccc(Br)c1` (stereo not drawn) [Compound 557, 4-(Amino-{1-[2-(3-bromo-phenyl)-acetyl]-pyrrolidin-2-yl}-methyl)-N-pyridin-4-yl-benzamide] are 0.5 to 5 µM and 0.05 to 0.5 µM.
For `NC(c1ccc(C(=O)Nc2ccncc2)cc1)C1CCCN1C(=O)Cc1ccc(Br)cc1` (stereo not drawn) [Compound 558, 4-(Amino-{1-[2-(4-bromo-phenyl)-acetyl]-pyrrolidin-2-yl}-methyl)-N-pyridin-4-yl-benzamide], in that order: 0.5 to 5 µM and 0.05 to 0.5 µM.
For `NC(c1ccc(C(=O)Nc2ccncc2)cc1)C1CCCN1C(=O)Cc1ccc(C(F)(F)F)cc1` (stereo not drawn) [Compound 559, 4-(Amino-{1-[2-(4-trifluoromethyl-phenyl)-acetyl]-pyrrolidin-2-yl}-methyl)-N-pyridin-4-yl-benzamide], the IC50 at PKC epsilon was in the range of 5 to 50 µM; on human ROCKα/ROCKII mix, 0.5 to 5 µM.
On the same counts, the results for `NC(c1ccc(C(=O)Nc2ccncc2)cc1)C1CCCN1C(=O)Cc1cccc(Cl)c1` (stereo not drawn) [Compound 560, 4-(Amino-{1-[2-(3-chloro-phenyl)-acetyl]-pyrrolidin-2-yl}-methyl)-N-pyridin-4-yl-benzamide] are 5 to 50 µM and 0.5 to 5 µM.
Consider `NC(c1ccc(C(=O)Nc2ccncc2)cc1)C1CCCN1C(=O)Cc1ccc(Cl)cc1` (stereo not drawn) [Compound 561, 4-(Amino-{1-[2-(4-chloro-phenyl)-acetyl]-pyrrolidin-2-yl}-methyl)-N-pyridin-4-yl-benzamide], for which the IC50 at PKC epsilon and against human ROCKα/ROCKII mix was 0.5 to 5 µM in each case.
As to `CC(C)C(C(=O)N1CCCC1C(N)c1ccc(C(=O)Nc2ccncc2)cc1)c1ccc(Cl)cc1` (stereo not drawn) [Compound 562, 4-(Amino-{1-[2-(4-chloro-phenyl)-3-methyl-butyryl]-pyrrolidin-2-yl}-methyl)-N-pyridin-4-yl-benzamide], the IC50 at PKC epsilon and against human ROCKα/ROCKII mix was 0.5 to 5 µM in each case.
As to `CC(C)(C(=O)N1CCCC1C(N)c1ccc(C(=O)Nc2ccncc2)cc1)c1ccc(Cl)cc1` (stereo not drawn) [Compound 563, 4-(Amino-{1-[2-(4-chloro-phenyl)-2-methyl-propionyl]-pyrrolidin-2-yl}-methyl)-N-pyridin-4-yl-benzamide], the IC50 on PKC epsilon and on human ROCKα/ROCKII mix was 0.5 to 5 µM each time.
With `NC(c1ccc(C(=O)Nc2ccncc2)cc1)C1CCCN1C(=O)C1(c2ccc(Cl)cc2)CC1` (stereo not drawn) [Compound 564, 4-(Amino-{1-[1-(4-chloro-phenyl)-cyclopropanecarbonyl]-pyrrolidin-2-yl}-methyl)-N-pyridin-4-yl-benzamide], the IC50 on PKC epsilon and against human ROCKα/ROCKII mix was 0.5 to 5 µM each time.
`NC(c1ccc(C(=O)Nc2ccncc2)cc1)C1CCCN1C(=O)C1(c2ccc(Cl)cc2)CCC1` (stereo not drawn) [Compound 565, 4-(Amino-{1-[1-(4-chloro-phenyl)-cyclobutanecarbonyl]-pyrrolidin-2-yl}-methyl)-N-pyridin-4-yl-benzamide]: the IC50 on PKC epsilon and against human ROCKα/ROCKII mix was 0.5 to 5 µM throughout.
Take `NC(c1ccc(C(=O)Nc2ccncc2)cc1)C1CCCN1C(=O)C1(c2ccc(Cl)cc2)CCCC1` (stereo not drawn) [Compound 566, 4-(Amino-{1-[1-(4-chloro-phenyl)-cyclopentanecarbonyl]-pyrrolidin-2-yl}-methyl)-N-pyridin-4-yl-benzamide]: the IC50 at PKC epsilon and against human ROCKα/ROCKII mix was 0.5 to 5 µM in each case.
With `NC(c1ccc(C(=O)Nc2ccncc2)cc1)C1CCCN1C(=O)Cc1ccccc1F` (stereo not drawn) [Compound 567, 4-(Amino-{1-[2-(2-fluoro-phenyl)-acetyl]-pyrrolidin-2-yl}-methyl)-N-pyridin-4-yl-benzamide], the IC50 fell in the range of 5 to 50 µM at PKC epsilon and 0.05 to 0.5 µM against human ROCKα/ROCKII mix.
For `NC(c1ccc(C(=O)Nc2ccncc2)cc1)C1CCCN1C(=O)Cc1cccc(F)c1` (stereo not drawn) [Compound 569], in that order: 5 to 50 µM and 0.5 to 5 µM.
As for `NC(c1ccc(C(=O)Nc2ccncc2)cc1)C1CCCN1C(=O)C1(c2cccc(F)c2)CCCC1` (stereo not drawn) [Compound 570, 4-(Amino-{1-[1-(3-fluoro-phenyl)-cyclopentanecarbonyl]-pyrrolidin-2-yl}-methyl)-N-pyridin-4-yl-benzamide], the IC50 at PKC epsilon and on human ROCKα/ROCKII mix was 0.5 to 5 µM in each case.
`COc1ccc(CC(=O)N2CCCC2C(N)c2ccc(C(=O)Nc3ccncc3)cc2)cc1F` (stereo not drawn) [Compound 571, 4-(Amino-{1-[2-(3-fluoro-4-methoxy-phenyl)-acetyl]-pyrrolidin-2-yl}-methyl)-N-pyridin-4-yl-benzamide]: the IC50 was 5 to 50 µM on PKC epsilon and 0.5 to 5 µM against human ROCKα/ROCKII mix.
